Where “and” joins values, the source holds several entries; their conditions need not be identical. Equal values may be shown once. Where a name gives a salt, the structure may show the parent alone. Blank lines part the entries; values can stand above or below the molecule they belong to.
How the values were obtained:
KOPN8 cells = test: alamarBlue cytotoxicity assay, 48h; format: cell-based, human; conditions: RPMI + 10% FBS
Description: (§1) Following subtraction of background fluorescence from all wells, fluorescence of drug-treated cells was normalized to that of vehicle (<0.5% DMSO)-treated cells to determine the effect of each drug concentration on viability. Each cell line was tested in triplicate and in at least three independent experiments. IC50 (concentration that inhibits cell growth by 50%) values were calculated using CompuSyn software (ComboSyn, Paramus, NJ). […] In addition several cell lines were initially cultured and tested in alternative media (Supplementary Table S2). […] Colony counts were normalized to vehicle-treated controls (100%). Three independent experiments were performed.
(§2) In most experiments, cytotoxicity was assessed using alamarBlue assays (Life Technologies, Grand Island, NY). In experiments using NAC and DFO, which can interfere with alamarBlue assay performance, Trypan Blue dye exclusion was used instead. […]
(§3) experiments performed in triplicate. […] Age refers to age […]
(§4) at the time of leukemia diagnosis of the patient from whom the cell line was derived. (–) Indicates information unavailable.
(§5) *Cell lines with FLT3/ITD mutations.
(§6) *The MV-4–11 cell line was derived from a patient with a biphenotypic B-myelomonocytic leukemia; K562 was derived […]
(§7) 1A. p53 status was obtained from http://cancer.sanger.ac.uk/cell_lines/cbrowse/all and http://p53.free.fr/Database/Cancer_ cell_lines/Leukemia_cancer. html. WT: wild type. Mut: mutant. SM: single mutation. DM: double mutation. MM: multiple mutations. Fs: Frameshift mutation. Null: protein expression undetectable. […]
(§8) measured via alamarBlue assay. […]

MOLM14 cells [1] = test: alamarBlue cytotoxicity assay, 48h; format: cell-based, human; conditions: MOLM14 (AML), 48h, RPMI + 10% FBS
Description: as §1, §2, §3, §4, §5, §6, §7, §8

in vivo = conditions: male, NSG, mouse, plasma, po, 200 mg/kg
Description: (§9) Plasma samples were obtained from 3-6 male NSG mice per time point (15min-24h after drug administration). Symbols represent concentrations of compound by LC/MS-MS detection.
(§10) Blood samples were collected via retro-orbital bleeding into EDTA-coated tubes. PK samples were centrifuged to obtain plasma, which was stored frozen (−80°C) until liquid chromatography/triple quadrupole mass spectrometry (LC/MS-MS) analysis.
(§11) were separated using an Agilent Zorbax Eclipse C18 column (2.1 mm x 50 mm, 3.5 μm) using gradient mobile phase
(§12) (acetonitrile and 2 mM ammonium acetate both containing 0.1% formic acid) and a gradient flow rate (0.2 to 0.4 ml/
(§13) min). An AB Sciex 5500 triple quadrupole mass spectrometer was used for detection. The m/z transitions used were
(§14) The calibration range was 5–1,000 ng/mL for all analytes. Mean drug concentrations were calculated at each time point. PK parameters (plasma
(§15) half-life [T1/2]; time to reach Cmax [Tmax]; maximum plasma concentration [Cmax]; area under the plasma concentration-
(§16) time curve [AUC] from time zero to the last measurable concentration [AUClast]; AUC from time zero to infinity [i.e.,
(§17) the AUClast + the extrapolated AUC from AUClast to infinity; AUC0–∞]; apparent volume of distribution [Vz/F]; body
(§18) weight-adjusted apparent clearance [CL/F/kg]) were calculated from mean drug concentration-time data using non-
(§19) the r2 of the elimination rate constant (λ ) was < 0.9, the AUC , CL/F, and T were not reported (NR).

[2] = plasma pharmacokinetics after single oral dose; conditions: single oral dose AS 200 mg/kg, NSG mice
Description: as §9, §10, §11, §12, §13, §14, §15, §16, §17, §18, §19

MOLM14 cells [3] = test: viable cell counts via Trypan Blue dye exclusion, 48h; format: cell-based, human; conditions: read-out: approximate 48h IC50
Description: A. Quantification of the percentage of early apoptotic cells (Annexin-V+/7-AAD-) from three independent experiments in which cells were stained for apoptosis with 7-AAD and Annexin-V then analyzed by flow cytometry. […] C. […] 16h after addition of drugs, cells were washed and analyzed by flow cytometry for CM-H2DCFDA fluorescence (indicating total ROS generation) in the FL1 channel. Mean Fluorescence Intensity (MFI) was normalized to that of vehicle control (0.5% DMSO) with no pretreatment. […] Viable cell counts, obtained via Trypan Blue dye exclusion, were normalized to vehicle (0.02% DMSO)-treated samples +/– pretreatment.
In most experiments, cytotoxicity was assessed using alamarBlue assays (Life Technologies, Grand Island, NY). In experiments using NAC and DFO, which can interfere with alamarBlue assay performance, Trypan Blue dye exclusion was used instead.

[4] = Homo sapiens, KOPN-8, KOPN8 (B-ALL)

SMILES: Nc1ccn([C@@H]2O[C@H](CO)[C@@H](O)[C@@H]2O)c(=O)n1 [ARA, cytosine arabinoside]
IC50 (KOPN8 cells; KOPN8 (B-ALL)): 73 nM
IC50 (MOLM14 cells [1]): 286 nM

AUC(0-inf) (in vivo): 1300 ng·h/mL
AUC(0-t) (in vivo): 1290 ng·h/mL
CL/F (in vivo): 2050 mL/min/kg
Cmax (in vivo): 1630 ng/mL and 5.74 µM
Tmax (in vivo): 15 min
Vd/F (in vivo): 103 L/kg
half-life (in vivo): 34.8 min
T1/2 ([2]; plasma): < 60 min
time by which plasma declined to undetectable levels [2]: ≤ 4 h
SMILES: C[C@H]1[C@@H](O)O[C@@H]2O[C@@]3(C)CC[C@H]4[C@H](C)CC[C@@H]1[C@@]24OO3 [DHA, dihydroartemisinin]
IC50 (KOPN8 cells; [4]): 351 nM
IC50 (MOLM14 cells [1]; Homo sapiens, MOLM-14): 1020 nM

SMILES: CNC(=O)c1cc(Oc2ccc(NC(=O)Nc3ccc(Cl)c(C(F)(F)F)c3)cc2)ccn1 [SOR, sorafenib]
IC50 (KOPN8 cells; [4]): 4200 nM
IC50 (MOLM14 cells [1]; Homo sapiens, MOLM-14): 4 nM

IC50 (MOLM14 cells [3]; MOLM14, preliminary experiments): ~25000 nM
SMILES: CC(=O)N[C@@H](CS)C(=O)O [NAC, N-acetyl cysteine]

SMILES: CO[C@@H]1[C@H](N(C)C(=O)c2ccccc2)C[C@H]2O[C@]1(C)n1c3ccccc3c3c4c(c5c6ccccc6n2c5c31)C(=O)NC4 [MID, midostaurin]
IC50 (KOPN8 cells; [4]): 210 nM

SMILES: CC(=O)N(O)CCCCCNC(=O)CCC(=O)N(O)CCCCCNC(=O)CCC(=O)N(O)CCCCCN [DFO, deferoxamine mesylate]
IC50 (MOLM14 cells [3]; Homo sapiens, MOLM-14, 48 h): ~11000 nM

SMILES: C[C@]12O[C@H](C[C@]1(O)CO)n1c3ccccc3c3c4c(c5c6ccccc6n2c5c31)CNC4=O [LES, lestaurtinib]
IC50 (KOPN8 cells; [4]): 45 nM
IC50 (MOLM14 cells [1]; Homo sapiens, MOLM-14): 3 nM

SMILES: COc1cc([C@@H]2c3cc4c(cc3[C@@H](O[C@@H]3O[C@@H]5CO[C@@H](C)O[C@H]5[C@H](O)[C@H]3O)[C@H]3COC(=O)[C@H]23)OCO4)cc(OC)c1O [ETO, etoposide]
IC50 (KOPN8 cells; [4]): 150 nM
IC50 (MOLM14 cells [1]; Homo sapiens, MOLM-14): 242 nM

SMILES: COc1cccc2c1C(=O)c1c(O)c3c(c(O)c1C2=O)C[C@@](O)(C(=O)CO)C[C@@H]3O[C@H]1C[C@H](N)[C@H](O)[C@H](C)O1 [DOX, doxorubicin]
IC50 (KOPN8 cells; [4]): 30 nM
IC50 (MOLM14 cells [1]; Homo sapiens, MOLM-14): 79 nM
